Where “and” joins values, the source holds several entries; their conditions need not be identical. Equal entries are not always repeated. Entries after “also recorded” stand apart in the source; their conditions may differ. Where two headings read alike, the source gives them in different places.
Assays:
KBV200 cells (KBV200细胞) [1] = details: KBV200 cell line; cited from earlier work
KBV200 cells (KBV200细胞) [2] = test: MTT cytotoxicity test: growth inhibition of KBV200 cells by single agents; assay type: cell-based, human; details: for IC50: KBv200; for inhibitory effect on tumour cells compared with another agent: artesunate versus artemisinin, dihydroartemisinin versus artesunate
KBV200 cells (KBV200细胞) [3] = test: Reversal of resistance: MTT growth inhibition of KBV200 cells by agent combined with VCR; assay type: cell-based, human; details: for inhibition rate of KBV200 cells on combination with VCR: VCR concentration constant, three agent concentrations; for reversal of vincristine resistance / sensitisation of KBV200 to VCR: agent combined with VCR
[4] = tested on: tumour multidrug resistance (肿瘤多药耐药); details: background; cited from earlier work
[5] = Homo sapiens, mass concentration in brackets beside the μmol/l value
[6] = Homo sapiens, single agent, 72 h (discussion)

O=c1[nH]cc(F)c(=O)[nH]1 [5-氟脲嘧啶]
resistance (KBV200 cells (KBV200细胞) [1]): 耐药性较低

CC[C@]1(O)C[C@H]2CN(CCc3c([nH]c4ccccc34)[C@@](C(=O)OC)(c3cc4c(cc3OC)N(C=O)[C@H]3[C@@](O)(C(=O)OC)[C@H](OC(C)=O)[C@]5(CC)C=CCN6CC[C@]43[C@@H]65)C2)C1 [VCR, 长春新碱]
fold resistance (KBV200 cells (KBV200细胞) [1]): ~175 fold
inhibition rate (KBV200 cells (KBV200细胞) [2]): < 50%
inhibition at 0.125 µg/mL (KBV200 cells (KBV200细胞) [2]; Homo sapiens, KBv200, 72 h, VCR 0.125 μg/ml, 72 h, read-out: inhibition rate (IR)): 6.51 ± 2.59%
inhibition at 0.25 µg/mL (KBV200 cells (KBV200细胞) [2]; Homo sapiens, KBv200, 72 h, VCR 0.250 μg/ml, 72 h, read-out: inhibition rate (IR)): 9.06 ± 3.13%
inhibition at 0.5 µg/mL (KBV200 cells (KBV200细胞) [2]; Homo sapiens, KBv200, 72 h, VCR 0.500 μg/ml, 72 h, read-out: inhibition rate (IR)): 13.9 ± 3.54%
inhibition at 1 µg/mL (KBV200 cells (KBV200细胞) [2]; Homo sapiens, KBv200, 72 h, VCR 1.000 μg/ml, 72 h, read-out: inhibition rate (IR)): 25.6 ± 1.71%
inhibition at 2 µg/mL (KBV200 cells (KBV200细胞) [2]; Homo sapiens, KBv200, 72 h, VCR 2.000 μg/ml, 72 h, read-out: inhibition rate (IR)): 66.3 ± 0.01%
IC50 (KBV200 cells (KBV200细胞) [2]; Homo sapiens, VCR alone, 72 h): 1.58 ± 1.22 µg/mL
inhibition rate (IR) (KBV200 cells (KBV200细胞) [2]; VCR 0.500 μg/ml, 72 h): 13.96±3.54%
inhibition rate (IR) (KBV200 cells (KBV200细胞) [2]; VCR 1.000 μg/ml, 72 h): 25.65±1.71%
inhibition rate (IR) (KBV200 cells (KBV200细胞) [2]; VCR 2.000 μg/ml, 72 h): 66.31±0.01%
inhibitory effect on KBV200 cells (KBV200 cells (KBV200细胞) [2]; VCR above 1.58 μg/ml): 具有较为明显的抑制效应
inhibitory effect on KBV200 cells (KBV200 cells (KBV200细胞) [2]; VCR below 1 μg/ml): 抑制效应并不明显

CC1CCC2C(C)C(O)OC3OC4(C)CCC1C32OO4 (stereo not drawn) [二氢青蒿素]
inhibition rate of KBV200 cells on combination with VCR (KBV200 cells (KBV200细胞) [3]): 略有提高
reversal of vincristine resistance / sensitisation of KBV200 to VCR (KBV200 cells (KBV200细胞) [3]): 有一定的增敏作用
reversal fold (RI) (KBV200 cells (KBV200细胞) [3]; dihydroartemisinin 0.625 umol/l with VCR): 1.35
reversal fold (RI) (KBV200 cells (KBV200细胞) [3]; dihydroartemisinin 1.25 umol/l with VCR): 1.515
reversal fold (RI) (KBV200 cells (KBV200细胞) [3]; dihydroartemisinin 2.5 umol/l with VCR): 1.74
IC50 (KBV200 cells (KBV200细胞) [2]; [5]): 3.18 µg/mL
IC50 (KBV200 cells (KBV200细胞) [2]; [6]): 11.2 µM
inhibitory effect on tumour cells compared with another agent (KBV200 cells (KBV200细胞) [2]): 较青蒿琥酯次之
inhibition rate (IR) (KBV200 cells (KBV200细胞) [2]; dihydroartemisinin 0.156 μmol/l, 72 h): 0.680±0.84%
inhibition rate (IR) (KBV200 cells (KBV200细胞) [2]; dihydroartemisinin 0.313 μmol/l, 72 h): 0.940±3.87%
inhibition rate (IR) (KBV200 cells (KBV200细胞) [2]; dihydroartemisinin 1.250 μmol/l, 72 h): < 20% and 10.00±3.31%
inhibition rate (IR) (KBV200 cells (KBV200细胞) [2]; dihydroartemisinin 2.500 μmol/l, 72 h): < 20% and 18.50±4.88%
inhibition rate (IR) (KBV200 cells (KBV200细胞) [2]; dihydroartemisinin 5.000 μmol/l, 72 h): 32.30±10.1%
inhibition rate (IR) (KBV200 cells (KBV200细胞) [2]; dihydroartemisinin 10.00 μmol/l, 72 h): 48.69±6.53%
inhibition rate (IR) (KBV200 cells (KBV200细胞) [2]; dihydroartemisinin 20.00 μmol/l, 72 h): 71.98±7.16%
inhibition rate (IR) (KBV200 cells (KBV200细胞) [2]; dihydroartemisinin 40.00 μmol/l, 72 h): 89.99±4.39%
inhibition rate (KBV200 cells (KBV200细胞) [2]; dihydroartemisinin above 11.16 umol/l): > 50%
inhibitory effect on KBV200 cells (KBV200 cells (KBV200细胞) [2]; dihydroartemisinin below 0.313 umol/l): 几乎无抑制效应
inhibition rate (KBV200 cells (KBV200细胞) [2]; dihydroartemisinin below 2.5 umol/l): < 20%
inhibitory effect on KBV200 cells (KBV200 cells (KBV200细胞) [2]; dihydroartemisinin below 10 umol/l): 抑制效应并不明显
inhibitory effect on KBV200 cells (KBV200 cells (KBV200细胞) [2]; overall statement): 大浓度具有一定的抑制KBV200细胞增殖效应; also recorded: 均有一定抑制效应

COc1cc2c(cc1OC)[C@@H]1Cc3ccc(OC)c(OC)c3CN1CC2 [左旋四氢马汀]
reversal fold [4]: 8.2-13.0

COc1cc2c(c(OC)c1OC)-c1ccc(OC)c(=O)cc1[C@@H](NC(C)=O)CC2 [秋水仙素]
fold resistance (KBV200 cells (KBV200细胞) [1]): ~15 fold

COc1ccc2cc1Oc1ccc(cc1)C[C@H]1c3cc(c(OC)cc3CCN1C)Oc1c(OC)c(OC)cc3c1[C@H](C2)N(C)CC3 [粉防已碱]
reversal fold [4]: 8.2-13.0

CC(=O)O[C@H]1C(=O)[C@@]2(C)[C@H]([C@H](OC(=O)c3ccccc3)[C@]3(O)C[C@H](OC(=O)[C@H](O)[C@@H](NC(=O)c4ccccc4)c4ccccc4)C(C)=C1C3(C)C)[C@]1(OC(C)=O)CO[C@@H]1C[C@@H]2O [紫杉醇]
fold resistance (KBV200 cells (KBV200细胞) [1]): ~156 fold

COc1cc2c(cc1OC)[C@@H](Cc1ccc(Oc3cc(C[C@@H]4c5cc(OC)c(OC)cc5CCN4C)ccc3O)cc1)N(C)CC2 [蝙蝠葛碱]
reversal fold [4]: 8.2-13.0

COc1cccc2c1C(=O)c1c(O)c3c(c(O)c1C2=O)C[C@@](O)(C(=O)CO)C[C@@H]3O[C@H]1C[C@H](N)[C@H](O)[C@H](C)O1 [阿霉素]
fold resistance (KBV200 cells (KBV200细胞) [1]): ~15 fold

C[C@H]1[C@H](OC(=O)CCC(=O)O)O[C@@H]2O[C@@]3(C)CC[C@H]4[C@H](C)CC[C@@H]1[C@@]24OO3 [青蒿琥酯]
inhibition rate of KBV200 cells on combination with VCR (KBV200 cells (KBV200细胞) [3]): 略有提高
reversal of vincristine resistance / sensitisation of KBV200 to VCR (KBV200 cells (KBV200细胞) [3]): 有一定的增敏作用
reversal fold (RI) (KBV200 cells (KBV200细胞) [3]; artesunate 0.078 umol/l with VCR): 1.19
reversal fold (RI) (KBV200 cells (KBV200细胞) [3]; artesunate 0.156 umol/l with VCR): 1.79
reversal fold (RI) (KBV200 cells (KBV200细胞) [3]; artesunate 0.313 umol/l with VCR): 2.57
selective killing of KBV200 cells (KBV200 cells (KBV200细胞) [2]): 有选择性杀伤作用
IC50 (KBV200 cells (KBV200细胞) [2]; [5]): 0.563 µg/mL
IC50 (KBV200 cells (KBV200细胞) [2]; [6]): 1.47 µM
inhibition rate (IR) (KBV200 cells (KBV200细胞) [2]; artesunate 0.0156 μmol/l (so in the source), 72 h): 9.520±4.910%
inhibition rate (IR) (KBV200 cells (KBV200细胞) [2]; artesunate 0.0390 μmol/l, 72 h): 1.640±3.520%
inhibition rate (KBV200 cells (KBV200细胞) [2]; artesunate 0.156 umol/l): < 20%
inhibition rate (IR) (KBV200 cells (KBV200细胞) [2]; artesunate 0.3130 μmol/l, 72 h): < 20% and 18.41±4.420%
inhibition rate (IR) (KBV200 cells (KBV200细胞) [2]; artesunate 0.6250 μmol/l, 72 h): 35.25±10.52%
inhibition rate (IR) (KBV200 cells (KBV200细胞) [2]; artesunate 1.2500 μmol/l, 72 h): 47.56±1.250%
inhibition rate (IR) (KBV200 cells (KBV200细胞) [2]; artesunate 2.5000 μmol/l, 72 h): 57.67±1.110%
inhibition rate (IR) (KBV200 cells (KBV200细胞) [2]; artesunate 5.0000 μmol/l, 72 h): 69.85±6.900%
inhibition rate (IR) (KBV200 cells (KBV200细胞) [2]; artesunate 10.000 μmol/l, 72 h): 84.47±0.600%
inhibition rate (IR) (KBV200 cells (KBV200细胞) [2]; artesunate 20.000 μmol/l, 72 h): 95.02±6.560%
inhibition rate (KBV200 cells (KBV200细胞) [2]; artesunate above 1.466 umol/l): > 50%
inhibitory effect on KBV200 cells (KBV200 cells (KBV200细胞) [2]; artesunate below 0.039 umol/l): 几乎无抑制效应
inhibition rate (KBV200 cells (KBV200细胞) [2]; artesunate below 0.313 umol/l): < 20%
inhibitory effect on KBV200 cells (KBV200 cells (KBV200细胞) [2]; artesunate below 1.25 umol/l): 抑制效应并不明显
inhibitory effect on tumour cells compared with another agent (KBV200 cells (KBV200细胞) [2]): 比青蒿素显著增强
inhibitory effect on KBV200 cells (KBV200 cells (KBV200细胞) [2]; overall statement): 大浓度具有一定的抑制KBV200细胞增殖效应; also recorded: 均有一定抑制效应

C[C@@H]1CC[C@H]2[C@@H](C)C(=O)O[C@@H]3O[C@@]4(C)CC[C@@H]1[C@]32OO4 [青蒿素]
inhibition rate of KBV200 cells on combination with VCR (KBV200 cells (KBV200细胞) [3]): 明显提高
reversal of vincristine resistance / sensitisation of KBV200 to VCR (KBV200 cells (KBV200细胞) [3]): 可部分逆转; also recorded: 具有不同的逆转KBV200耐药效应
reversal fold (RI) (KBV200 cells (KBV200细胞) [3]; artemisinin 10 umol/l with VCR, RI = IC50 VCR / IC50 VCR+agent): 2.29
reversal fold (RI) (KBV200 cells (KBV200细胞) [3]; artemisinin 20 umol/l with VCR): 2.68
reversal fold (RI) (KBV200 cells (KBV200细胞) [3]; artemisinin 40 umol/l with VCR): 3.0
IC50 (KBV200 cells (KBV200细胞) [2]; [5]): 48.6 µg/mL
IC50 (KBV200 cells (KBV200细胞) [2]; [6]): 172 µM
inhibition rate (IR) (KBV200 cells (KBV200细胞) [2]; artemisinin 2.50 μmol/l, 72 h): 1.140±2.85%
inhibition rate (IR) (KBV200 cells (KBV200细胞) [2]; artemisinin 5.00 μmol/l, 72 h): 2.690±4.36%
inhibition rate (IR) (KBV200 cells (KBV200细胞) [2]; artemisinin 20.0 μmol/l, 72 h): < 20% and 12.70±2.53%
inhibition rate (IR) (KBV200 cells (KBV200细胞) [2]; artemisinin 40.0 μmol/l, 72 h): < 20% and 19.22±5.59%
inhibition rate (IR) (KBV200 cells (KBV200细胞) [2]; artemisinin 80.0 μmol/l, 72 h): 28.47±2.73%
inhibition rate (IR) (KBV200 cells (KBV200细胞) [2]; artemisinin 160 μmol/l, 72 h): 43.57±5.20%
inhibition rate (KBV200 cells (KBV200细胞) [2]; artemisinin above 172.4 umol/l): > 50%
inhibitory effect on KBV200 cells (KBV200 cells (KBV200细胞) [2]; artemisinin below 2.50 umol/l): 几乎无抑制效应
inhibition rate (KBV200 cells (KBV200细胞) [2]; artemisinin below 40 umol/l): < 20%
inhibition rate (KBV200 cells (KBV200细胞) [2]; artemisinin below 80 umol/l): < 30%
inhibitory effect on KBV200 cells (KBV200 cells (KBV200细胞) [2]; artemisinin below 160 umol/l): 抑制效应并不明显
inhibitory effect on KBV200 cells (KBV200 cells (KBV200细胞) [2]; overall statement): 大浓度具有一定的抑制KBV200细胞增殖效应; also recorded: 均有一定抑制效应

COC(=O)C[C@](O)(CCCC(C)(C)O)C(=O)O[C@@H]1C(OC)=C[C@]23CCCN2CCc2cc4c(cc2[C@H]13)OCO4 [高三尖杉酯]
resistance (KBV200 cells (KBV200细胞) [1]): 耐药性较低

COc1cc([C@@H]2c3cc4c(cc3[C@@H](O[C@@H]3O[C@@H]5CO[C@@H](C)O[C@H]5[C@H](O)[C@H]3O)[C@H]3COC(=O)[C@H]23)OCO4)cc(OC)c1O [鬼臼乙叉甙]
resistance (KBV200 cells (KBV200细胞) [1]): 耐药性较低

人参皂甙Rb1
reversal fold [4]: 8.2-13.0
